Data on four compounds can be found in US20230255877A1, “COMPOSITION FOR IMPROVING SKIN COMPRISING STEAMED CITRUS PEEL EXTRACT AS ACTIVE INGREDIENT” (LG HOUSEHOLD & HEALTH CARE LTD., priority 2022, published 2023).

For one experiment, the system named is human dermal fibroblasts. The experiment can be described thus: Collagen synthesis promotion in human dermal fibroblasts (procollagen 1α1 ELISA). Format: cell-based. The procedure:
In order to confirm the collagen synthesis promoting effect of the citrus peel extracts, the amount of additional collagen production was measured after the extracts were untreated, steamed for 30 minutes, or steamed for 8 hours. In order to culture human dermal fibroblasts, a mixture of DMEM and FBS was used as a basic medium, and the skin fibroblasts were seeded into a 48-well plate at a concentration of 2 to 5×10^4 cells/mL and cultured for 24 hours. The medium was removed, and the DMSO lysate of each extract was treated in serum-free medium so that the concentration was 100 ppm, and cultured for 24 hours. A positive control that promotes collagen synthesis was treated with TGF-β to a concentration of 5 ppb. The cell culture solution was taken and the synthesized collagen was measured using the Human procollagen 1α1 duoset ELISA Kit (R&D Systems) and ELISA reader. A calibration curve was prepared by measuring the isolated and purified collagen at concentrations of 0.25, 0.5, 1, 2, 4, and 8 ng/mL, and based on the results, the amount of collagen (Type I collagen) produced in the DMSO lysate of the citrus peel extracts was calculated. The amount of collagen produced compared to the control group (DMSO) was calculated as collagen production rate (%), and the average value was calculated after the experiment was performed three times (Table 14).
In order to identify the cause of the change in collagen synthesis promoting efficacy among the steamed citrus peel extract components, the amount of additional collagen production of hesperidin, a flavonoid glycone, and hesperetin, a flavonoid aglycone, was compared (Table 15).

The subject of another experiment is Raw264.7 cells. The experiment can be described thus: NO production inhibition in lipopolysaccharide-treated Raw264.7 cells (GRIESS reagent). Format: cell-based. How it is done: In order to confirm the anti-inflammatory effect of the citrus peel extracts, NO production inhibition rate was measured after the extracts were untreated, steamed for 30 minutes, or steamed for 8 hours. In order to culture Raw264.7 cells, a mixture of DMEM (Dulbecco's Modified Eagle's Medium) and FBS (Fetal Bovine Serum) was used as a basic medium, and the Raw264.7 cells were seeded into a 24-well plate at a concentration of 1 to 2×10^5 cells/mL and cultured for 24 hours. The medium was removed and the cells were starvated in serum-free medium for 12 hours, and thereafter, the DMSO lysate of each extract was treated so that the concentration was 200 ppm, and after 30 minutes, lipopolysaccharide was added at a concentration of 500 ng/ml and cultured for 18 hours. L-NMMA, a positive control, was treated at 20 ppm. After completion of the culture, the supernatant was taken and transferred to a 96-well plate, reacted at room temperature by adding the GRIESS reagent, and the absorbance at 540 nm was measured using an ELISA reader. The amount of NO inhibited compared to the control group was calculated as NO production inhibition rate (%), and the average value was calculated after the experiment was performed three times.
In order to identify the cause of the change in anti-inflammatory efficacy among the steamed citrus peel extract components, the NO production inhibition rates of hesperidin, a flavonoid glycone, and hesperetin, a a flavonoid aglycone, were compared (Table 13)

For `COc1ccc([C@@H]2CC(=O)c3c(O)cc(O[C@@H]4O[C@H](CO[C@@H]5O[C@@H](C)[C@H](O)[C@@H](O)[C@H]5O)[C@@H](O)[C@H](O)[C@H]4O)cc3O2)cc1O` [Hesperidin, hesperidin], the figures for the “Additional Collagen Production Rate” value in the experiment on human dermal fibroblasts (0.1 ppm) and with human dermal fibroblasts (1 ppm) were −0.2% and 0.2%, respectively. For the same compound, the “NO Production Inhibition Rate” value in the experiment with Raw264.7 cells (0.1 ppm) is −5.5%; in the experiment on Raw264.7 cells (1 ppm) it was 0.6%; in the experiment with Raw264.7 cells (10 ppm), 1.8%; in the experiment on Raw264.7 cells (20 ppm) it was 2.4%.

For the compound `COc1ccc([C@@H]2CC(=O)c3c(O)cc(O)cc3O2)cc1O` [Hesperetin, hesperetin], the “Additional Collagen Production Rate” value in the experiment on human dermal fibroblasts (0.1 ppm) came out at 17.0%; in the experiment with human dermal fibroblasts (1 ppm) it was 16.8%. The inhibition at 0.1 ppm with Raw264.7 cells (Mus musculus, RAW264.7, 0.1 ppm, read-out: NO Production Inhibition Rate) is -3%. Further, the inhibition at 1 ppm with Raw264.7 cells (Mus musculus, RAW264.7, 1 ppm, read-out: NO Production Inhibition Rate) was found to be 2.6%. Further, the inhibition at 10 ppm in the experiment on Raw264.7 cells (Mus musculus, RAW264.7, 10 ppm, read-out: NO Production Inhibition Rate) was 8.1%. Also, the inhibition at 20 ppm in the experiment with Raw264.7 cells (Mus musculus, RAW264.7, 20 ppm, read-out: NO Production Inhibition Rate) amounted to 35.6%.

On to `CNC(=N)NCCC[C@H](N)C(=O)O` [L-NMMA], for which the “NO Production Inhibition Rate” value came to 55.1% in the experiment with Raw264.7 cells (positive control, 20 ppm, Table 12) and 51.3% with Raw264.7 cells (positive control, Table 13).

For “TGF-β: positive control that promotes collagen synthesis”, the “Additional Collagen Production Rate” value with human dermal fibroblasts (positive control, 5 ppb, Table 14) is 25.2%; in the experiment on human dermal fibroblasts (positive control, Table 15), 23.7%.
